Our source for the Dmax values is patent US20230248834A1, “DEGRADATION OF (EGFR) BY CONJUGATION OF EGFR INHIBITORS WITH E3 LIGASE LIGAND AND METHODS OF USE” (BEIGENE, LTD., priority 2020, published 2023).

Assay [1] has as its target T1, EGFR L858R/C797S (Homo sapiens, UniProt P00533, C797S/L858R).
T1 construct: expressed in transfected cells; host or cells: BaF3 LC
As to the kind of experiment: EGFR degradation HTRF assay in BaF3 LC cells. In kind it is cell-based. The settings on record: BaF3 LC (L858R/C797S), maximum percentage of inhibition (degradation); read-out: BaF3 LC Dmax (%). As to the method:
(§1) BaF3-LTC(L858R/T790M/C797S) cells and BaF3 LC(L858R/C797S) cells are treated with compounds diluted in 0.2% DMSO cell culture medium and incubate for 16 h, 37° C., 5% CO2. the final concentration of compounds in all assay is start with 10 uM, 5-fold dilution, total 8 doses were included.
(§2) After 16 h treatment, add HTRF lysis buffer to each well; seal the plate and incubate 1 hour at room temperature on a plate shaker; Once the cells are lysed, 16 μL of cell lysate are transferred to a PE 384-well HTRF detection plate; 4 μL of pre-mixed HTRF antibodies are added to each well; Cover the plate with a plate sealer, spin 1000 rpm for 1 min, Incubate overnight at room temperature; Read on BMG PheraStar with HTRF protocol (337 nm-665 nm-620 nm).
(§3) The inhibition (degradation) percentage of the compound was calculated by the following equation: Inhibition percentage of Compound=100−100×(Signal−low control)/(High control−low control), wherein signal=each test compound group
(§4) High control=Cell group with added DMSO and without compound, indicating microplate readings without EGFR degradation;
(§5) Dmax is the maximum percentage of inhibition (degradation).
(§6) The IC50 (DC50) value of a compound can be obtained by fitting the following equation
(§7) Y=Bottom+(TOP−Bottom)/(1+((IC50/X)^hillslope))
(§8) Wherein, X and Y are known values, and IC50, Hillslope, Top and Bottom are the parameters obtained by fitting with software. Y is the inhibition percentage (calculated from the equation), X is the concentration of the compound; IC50 is the concentration of the compound when the 50% inhibition is reached. The smaller the IC50 value is, the stronger the inhibitory ability of the compound is. Vice versa, the higher the IC50 value is, the weaker the inhibitory ability of the compound is; Hillslope represents the slope of the fitted curve, generally around 1*; Bottom represents the minimum value of the curve obtained by data fitting, which is generally 0%±20%; Top represents the maximum value of the curve obtained by data fitting, which is generally 100%±20%. The experimental data were fitted by calculating and analyzing with Dotmatics data analysis software.
For orientation: In TR-FRET formats the signal depends on donor and acceptor labels being close together.

The target of assay [2] is T2, EGFR L858R/T790M/C797S (Homo sapiens, UniProt P00533, C797S/L858R/T790M).
T2 construct: expressed in transfected cells; host or cells: BaF3-LTC
Briefly: EGFR degradation HTRF assay in BaF3-LTC cells. The settings on record: BaF3-LTC (L858R/T790M/C797S), maximum percentage of inhibition (degradation); read-out: BaF3-LTC Dmax (%). In kind it is cell-based. As to the method: as §1, §2, §3, §4, §5, §6, §7, §8

T1 sequence (P00533 25-1210 C797S/L858R): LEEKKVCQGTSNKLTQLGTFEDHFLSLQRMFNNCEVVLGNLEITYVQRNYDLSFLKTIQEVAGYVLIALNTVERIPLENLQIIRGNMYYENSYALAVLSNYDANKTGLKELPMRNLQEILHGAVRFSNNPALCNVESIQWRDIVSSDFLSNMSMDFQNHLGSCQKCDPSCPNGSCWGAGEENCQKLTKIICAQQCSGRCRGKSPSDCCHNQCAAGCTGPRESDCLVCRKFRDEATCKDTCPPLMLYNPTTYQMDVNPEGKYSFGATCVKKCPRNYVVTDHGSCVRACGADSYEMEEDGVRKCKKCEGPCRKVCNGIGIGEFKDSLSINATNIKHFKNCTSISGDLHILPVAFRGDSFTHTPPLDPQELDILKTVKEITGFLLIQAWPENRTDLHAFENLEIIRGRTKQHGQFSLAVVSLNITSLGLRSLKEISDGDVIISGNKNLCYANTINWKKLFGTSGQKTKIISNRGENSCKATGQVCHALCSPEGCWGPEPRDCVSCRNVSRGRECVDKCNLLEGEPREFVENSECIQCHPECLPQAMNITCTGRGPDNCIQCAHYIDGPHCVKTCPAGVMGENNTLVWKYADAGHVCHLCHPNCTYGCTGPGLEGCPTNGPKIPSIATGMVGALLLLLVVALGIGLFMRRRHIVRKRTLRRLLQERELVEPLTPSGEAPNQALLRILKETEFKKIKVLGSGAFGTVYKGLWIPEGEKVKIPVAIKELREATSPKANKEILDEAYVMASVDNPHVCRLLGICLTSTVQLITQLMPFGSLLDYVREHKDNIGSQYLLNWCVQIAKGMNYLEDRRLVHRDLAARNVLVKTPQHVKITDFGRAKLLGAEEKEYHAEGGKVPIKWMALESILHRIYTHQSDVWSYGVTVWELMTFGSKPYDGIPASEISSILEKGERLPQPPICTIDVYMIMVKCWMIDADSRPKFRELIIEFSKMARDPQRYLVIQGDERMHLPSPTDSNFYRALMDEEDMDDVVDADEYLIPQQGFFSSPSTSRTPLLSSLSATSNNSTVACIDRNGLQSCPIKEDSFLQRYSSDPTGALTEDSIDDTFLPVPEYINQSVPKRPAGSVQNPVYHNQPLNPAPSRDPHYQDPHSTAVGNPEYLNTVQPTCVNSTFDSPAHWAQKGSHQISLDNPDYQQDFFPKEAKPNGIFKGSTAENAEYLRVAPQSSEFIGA
T2 sequence (P00533 25-1210 T790M/C797S/L858R): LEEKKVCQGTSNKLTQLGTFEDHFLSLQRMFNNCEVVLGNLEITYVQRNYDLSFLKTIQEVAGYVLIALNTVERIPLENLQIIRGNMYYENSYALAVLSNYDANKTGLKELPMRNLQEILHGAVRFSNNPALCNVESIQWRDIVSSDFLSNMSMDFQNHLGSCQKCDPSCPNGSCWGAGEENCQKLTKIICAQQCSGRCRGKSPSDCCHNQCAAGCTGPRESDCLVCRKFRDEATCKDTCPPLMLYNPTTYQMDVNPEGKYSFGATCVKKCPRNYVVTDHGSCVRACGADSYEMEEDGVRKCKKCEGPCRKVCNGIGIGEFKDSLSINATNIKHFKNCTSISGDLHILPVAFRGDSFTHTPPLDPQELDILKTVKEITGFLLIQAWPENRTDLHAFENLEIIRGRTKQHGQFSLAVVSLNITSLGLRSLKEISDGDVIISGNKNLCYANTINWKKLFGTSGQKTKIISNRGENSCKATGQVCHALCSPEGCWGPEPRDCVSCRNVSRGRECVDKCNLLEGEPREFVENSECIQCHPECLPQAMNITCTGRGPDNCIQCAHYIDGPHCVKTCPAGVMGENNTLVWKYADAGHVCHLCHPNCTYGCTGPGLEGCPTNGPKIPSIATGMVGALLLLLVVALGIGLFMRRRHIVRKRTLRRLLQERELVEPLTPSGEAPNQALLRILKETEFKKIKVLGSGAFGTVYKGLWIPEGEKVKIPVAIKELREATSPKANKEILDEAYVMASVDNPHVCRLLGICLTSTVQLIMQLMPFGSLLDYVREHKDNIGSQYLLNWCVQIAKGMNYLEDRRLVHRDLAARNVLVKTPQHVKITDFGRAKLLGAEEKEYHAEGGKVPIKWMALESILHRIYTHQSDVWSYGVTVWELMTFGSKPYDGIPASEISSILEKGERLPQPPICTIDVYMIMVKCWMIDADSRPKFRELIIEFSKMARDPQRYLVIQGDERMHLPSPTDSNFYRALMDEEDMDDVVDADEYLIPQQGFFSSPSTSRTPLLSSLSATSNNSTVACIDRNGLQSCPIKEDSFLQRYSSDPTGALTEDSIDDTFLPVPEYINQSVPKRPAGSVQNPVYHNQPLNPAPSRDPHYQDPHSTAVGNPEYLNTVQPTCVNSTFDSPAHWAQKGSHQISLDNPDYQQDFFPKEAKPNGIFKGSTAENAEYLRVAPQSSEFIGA

What is called Dmax is the greatest extent of degradation seen. For `CCc1ccc2c(P(C)(C)=O)c(Nc3nc(Nc4cc(CC)c(N5CCC(N6CCN(C(=O)C7CN(c8cc(F)c([C@H]9CCC(=O)NC9=O)c(F)c8)C7)CC6)CC5)cc4OC)ncc3Br)ccc2n1` [Example 755, (R)-3-(4-(3-(4-(1-(4-((5-bromo-4-((5-(dimethylphosphoryl)-2-ethylquinolin-6-yl)amino)pyrimidin-2-yl)amino)-2-ethyl-5-methoxyphenyl)piperidin-4-yl)piperazine-1-carbonyl)azetidin-1-yl)-2,6-difluorophenyl)piperidine-2,6-dione], the Dmax is 91.7% in assay [1] and 98.6% in assay [2].

On to `CCc1cc(Nc2ncc(Br)c(Nc3ccc4nc(C)c(F)cc4c3P(C)(C)=O)n2)c(OC)cc1N1CCC(N2CCN(C(=O)[C@H]3CN(c4cc(F)c([C@H]5CCC(=O)NC5=O)c(F)c4)CC3(C)C)CC2)CC1` [Example 576, (R)-3-(4-((R)-4-(4-(1-(4-((5-bromo-4-((5-(dimethylphosphoryl)-3-fluoro-2-methylquinolin-6-yl)amino)pyrimidin-2-yl)amino)-2-ethyl-5-methoxyphenyl)piperidin-4-yl)piperazine-1-carbonyl)-3,3-dimethylpyrrolidin-1-yl)-2,6-difluorophenyl)piperidine-2,6-dione], for which the Dmax in assay [1] was 95.9%; in assay [2] it was 92.2%.

As for `CCc1ncc2c(P(C)(C)=O)c(Nc3nc(Nc4cc(CC)c(N5CCC(N6CCN(C(=O)[C@@H]7CCN(c8cc(F)c([C@H]9CCC(=O)NC9=O)c(F)c8)C7)CC6)CC5)cc4OC)ncc3Br)ccc2n1` [Example 549, (R)-3-(4-((R)-3-(4-(1-(4-((5-bromo-4-((5-(dimethylphosphoryl)-2-ethylquinazolin-6-yl)amino)pyrimidin-2-yl)amino)-2-ethyl-5-methoxyphenyl)piperidin-4-yl)piperazine-1-carbonyl)pyrrolidin-1-yl)-2,6-difluorophenyl)piperidine-2,6-dione], the Dmax in assay [1] is 87.2%; in assay [2] it was 90.4%. Regarding `CCOc1cc(N2CCC(N3CCN(CC4CN(c5cc(F)c([C@H]6CCC(=O)NC6=O)c(F)c5)C4)CC3)CC2)c(CC)cc1Nc1ncc(Br)c(Nc2ccc3c(=O)n(CC)ncc3c2P(C)(C)=O)n1` [Example 551, (R)-3-(4-(3-((4-(1-(4-((5-bromo-4-((5-(dimethylphosphoryl)-2-ethyl-1-oxo-1,2-dihydrophthalazin-6-yl)amino)pyrimidin-2-yl)amino)-5-ethoxy-2-ethylphenyl)piperidin-4-yl)piperazin-1-yl)methyl)azetidin-1-yl)-2,6-difluorophenyl)piperidine-2,6-dione], the Dmax in assay [1] stood at 86.8%; in assay [2], 89.7%. With `CCOc1cc(N2CCC(N3CCN(CC4CN(c5cc(F)c([C@H]6CCC(=O)NC6=O)c(F)c5)C4)CC3)CC2)c(CC)cc1Nc1ncc(Br)c(Nc2ccc3nc(CC)ccc3c2P(C)(C)=O)n1` [Example 541, (R)-3-(4-(3-((4-(1-(4-((5-bromo-4-((5-(dimethylphosphoryl)-2-ethylquinolin-6-yl)amino)pyrimidin-2-yl)amino)-5-ethoxy-2-ethylphenyl)piperidin-4-yl)piperazin-1-yl)methyl)azetidin-1-yl)-2,6-difluorophenyl)piperidine-2,6-dione], the Dmax in assay [2] came to 95.6%. In the case of `CCc1ncc2c(P(C)(C)=O)c(Nc3nc(Nc4cc(C)c(N5CCC(N6CCN(CCc7cc(F)c([C@H]8CCC(=O)NC8=O)c(F)c7)CC6)CC5)cc4OC)ncc3Br)ccc2n1` [Example 748, (R)-3-(4-(2-(4-(1-(4-((5-bromo-4-((5-(dimethylphosphoryl)-2-ethylquinazolin-6-yl)amino)pyrimidin-2-yl)amino)-5-methoxy-2-methylphenyl)piperidin-4-yl)piperazin-1-yl)ethyl)-2,6-difluorophenyl)piperidine-2,6-dione], in assay [2], the Dmax came out at 93.6%. With `CCOc1cc(N2CCC(N3CCN(CCc4cc(F)c([C@H]5CCC(=O)NC5=O)c(F)c4)CC3)CC2)c(CC)cc1Nc1ncc(Cl)c(Nc2cc(F)c3nc(CC)ccc3c2P(C)(C)=O)n1` [Example 730, (R)-3-(4-(2-(4-(1-(4-((5-chloro-4-((5-(dimethylphosphoryl)-2-ethyl-8-fluoroquinolin-6-yl)amino)pyrimidin-2-yl)amino)-5-ethoxy-2-ethylphenyl)piperidin-4-yl)piperazin-1-yl)ethyl)-2,6-difluorophenyl)piperidine-2,6-dione], in assay [2], the Dmax is 83.7%. Consider `CCOc1cc(N2CCC(N3CCN(CCc4cc(F)c([C@H]5CCC(=O)NC5=O)c(F)c4)CC3)CC2)c(CC)cc1Nc1ncc(C)c(Nc2cc(F)c3nc(CC)ccc3c2P(C)(C)=O)n1` [Example 733, (R)-3-(4-(2-(4-(1-(4-((4-((5-(dimethylphosphoryl)-2-ethyl-8-fluoroquinolin-6-yl)amino)-5-methylpyrimidin-2-yl)amino)-5-ethoxy-2-ethylphenyl)piperidin-4-yl)piperazin-1-yl)ethyl)-2,6-difluorophenyl)piperidine-2,6-dione], for which the Dmax in assay [2] was 89.5%. On to `CCOc1cc(N2CCC(N3CCN(CCc4cc(F)c([C@H]5CCC(=O)NC5=O)c(F)c4)CC3)CC2)c(CC)cc1Nc1nccc(Nc2ccc3nc(CC)ncc3c2P(C)(C)=O)n1` [Example 749, (R)-3-(4-(2-(4-(1-(4-((4-((5-(dimethylphosphoryl)-2-ethylquinazolin-6-yl)amino)pyrimidin-2-yl)amino)-5-ethoxy-2-ethylphenyl)piperidin-4-yl)piperazin-1-yl)ethyl)-2,6-difluorophenyl)piperidine-2,6-dione], for which the maximal degradation (Dmax) in assay [2] came out at 35.9%. The same measure, in the same setting: the value for `CCOc1cc(N2CCC(N3CCN(C(=O)[C@H]4CN(c5cc(F)c([C@H]6CCC(=O)NC6=O)c(F)c5)CC4(C)C)CC3)CC2)c(CC)cc1Nc1ncc(Br)c(Nc2ccc3nc(C)ccc3c2P(C)(C)=O)n1` [Example 747, (R)-3-(4-((R)-4-(4-(1-(4-((5-bromo-4-((5-(dimethylphosphoryl)-2-methylquinolin-6-yl)amino)pyrimidin-2-yl)amino)-5-ethoxy-2-ethylphenyl)piperidin-4-yl)piperazine-1-carbonyl)-3,3-dimethylpyrrolidin-1-yl)-2,6-difluorophenyl)piperidine-2,6-dione] was 96.2%; that for `COc1cc(N2CCC(N3CCN(C(=O)[C@H]4CN(c5cc(F)c([C@H]6CCC(=O)NC6=O)c(F)c5)CC4(C)C)CC3)CC2)c(C)cc1Nc1ncc(Br)c(Nc2ccc3nc(C)c(F)cc3c2P(C)(C)=O)n1` [Example 729, (R)-3-(4-((R)-4-(4-(1-(4-((5-bromo-4-((5-(dimethylphosphoryl)-3-fluoro-2-methylquinolin-6-yl)amino)pyrimidin-2-yl)amino)-5-methoxy-2-methylphenyl)piperidin-4-yl)piperazine-1-carbonyl)-3,3-dimethylpyrrolidin-1-yl)-2,6-difluorophenyl)piperidine-2,6-dione] was 97.1%; that for `CCOc1cc(N2CCC(N3CCN(CCc4c(F)ccc5c4n(CC)c(=O)n5C4CCC(=O)NC4=O)CC3)CC2)c(CC)cc1Nc1ncc(Br)c(Nc2ccc3nc(CC)ccc3c2P(C)(C)=O)n1` (centres unmarked) [Example 558, 3-(4-(2-(4-(1-(4-((5-bromo-4-((5-(dimethylphosphoryl)-2-ethylquinolin-6-yl)amino)pyrimidin-2-yl)amino)-5-ethoxy-2-ethylphenyl)piperidin-4-yl)piperazin-1-yl)ethyl)-3-ethyl-5-fluoro-2-oxo-2,3-dihydro-1H-benzo[d]imidazol-1-yl)piperidine-2,6-dione] was 95.9%.

Take `COc1cc(N2CCC(N3CCN(C(=O)[C@@H]4CCN(c5cc(F)c([C@H]6CCC(=O)NC6=O)c(F)c5)C4)CC3)CC2)c(C)cc1Nc1ncc(Br)c(Nc2ccc3nc(C)c(F)cc3c2P(C)(C)=O)n1` [Example 732, (R)-3-(4-((R)-3-(4-(1-(4-((5-bromo-4-((5-(dimethylphosphoryl)-3-fluoro-2-methylquinolin-6-yl)amino)pyrimidin-2-yl)amino)-5-methoxy-2-methylphenyl)piperidin-4-yl)piperazine-1-carbonyl)pyrrolidin-1-yl)-2,6-difluorophenyl)piperidine-2,6-dione]: the Dmax in assay [2] stood at 95.5%.
